Target: T1, mPDE10A7 (Mus musculus, UniProt Q8CA95)
T1 sequence (Q8CA95 446-763 limits assumed): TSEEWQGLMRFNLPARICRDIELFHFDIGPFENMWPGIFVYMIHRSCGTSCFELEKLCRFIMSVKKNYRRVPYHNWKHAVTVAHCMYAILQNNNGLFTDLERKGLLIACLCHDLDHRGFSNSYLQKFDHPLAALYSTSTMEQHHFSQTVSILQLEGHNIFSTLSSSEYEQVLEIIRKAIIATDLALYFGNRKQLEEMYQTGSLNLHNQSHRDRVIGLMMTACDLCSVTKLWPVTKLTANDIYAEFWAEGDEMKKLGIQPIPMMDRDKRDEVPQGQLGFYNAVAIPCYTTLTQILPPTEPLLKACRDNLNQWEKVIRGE
Assay: mPDE10A7 enzyme inhibition (IMAP fluorescence polarization)
Assay type: biochemical
Details: fluorescein labeled cAMP or cGMP substrate
Procedure: To analyze the enzyme activity, 5 μL of serial diluted mPDE10A7 containing lysate were incubated with equal volumes of diluted (100-fold) fluorescein labeled cAMP or cGMP for 30 minutes in MDC HE 96-well assay plates at room temperature. Both the enzyme and the substrates were diluted in the following assay buffer: Tris/HCl (pH 8.0) 50 mM, MgCl2 5 mM, 2-mercaptoethanol 4 mM, BSA 0.33 mg/mL. After incubation, the reaction was stopped by adding 20 μL of diluted (400-fold) binding reagents and was incubated for an hour at room temperature. The plates were counted in an Analyst GT (Molecular Devices) for fluorescence polarization. An IMAP Assay kit (Molecular Device) was used to assess enzyme properties of mmPDE10A7. Data were analyzed with SoftMax Pro.
To check the inhibition profile, 10 μL of serial diluted compounds were incubated with 30 μl of diluted PDE enzymes in a 96-well polystyrene assay plate for 30 minutes at room temperature. After incubation, 5 μL of the compound-enzyme mixture were aliquoted into a MDC HE black plate, mixed with 5 μL of 100-fold diluted fluorescein labeled substrates (cAMP or cGMP), and incubated for 30 minutes at room temperature. The reaction was stopped by adding 20 μL of diluted binding reagents and counted in an Analyst GT for fluorescence polarization. The data were analyzed with SoftMax Pro.

Row | Compound | IC50 [nM]
1 | COc1cc2nncc(-c3cccc(N4CCOCC4)c3)c2cc1OC [Cpd 1, 6,7-dimethoxy-4-(3-morpholin-4-ylphenyl)cinnoline] | 57.9
2 | COc1cc2nncc(N3CCc4cc(N5CCCCC5)ccc4C3=O)c2cc1OC [Cpd 4, 2-(6,7-dimethoxycinnolin-4-yl)-6-piperidin-1-yl-3,4-dihydroisoquinolin-1(2H)-one] | 167
3 | COc1cc2nncc(-c3cccc(-c4cnn(C)c4)c3)c2cc1OC [Cpd 5, 6,7-dimethoxy-4-[3-(1-methyl-1H-pyrazol-4-yl)phenyl]cinnoline hydroformate] | 79.8
4 | COc1cccc(-n2cc(-c3cnnc4cc(OC)c(OC)cc34)cn2)c1 [Cpd 10, 6,7-Dimethoxy-4-[1-(3-methoxyphenyl)-1H-pyrazol-4-yl]cinnoline hydroformate] | 68
5 | COc1cc2nncc(-n3ccc4cc(N5CCOCC5)ccc43)c2cc1OC [Cpd 20, 6,7-dimethoxy-4-(5-morpholin-4-yl-1H-indol-1-yl)cinnoline hydroformate] | 209
6 | COc1cc2nncc(-c3cnn(Cc4ccc(-c5ccccc5)cc4)c3)c2cc1OC [Cpd 23, 4-[1-(Biphenyl-4-ylmethyl)-1H-pyrazol-4-yl]-6,7-dimethoxycinnoline] | 474
7 | COc1cc2nncc(-c3cnn(Cc4cccc(C(F)(F)F)c4)c3)c2cc1OC [Cpd 26, 6,7-Dimethoxy-4-{1-[3-(trifluoromethyl)benzyl]-1H-pyrazol-4-yl}cinnoline] | 182
8 | COc1cc2nncc(-c3cnn(Cc4ccccc4C#N)c3)c2cc1OC [Cpd 28, 2-{[4-(6,7-Dimethoxycinnolin-4-yl)-1H-pyrazol-1-yl]methyl}benzonitrile] | 101
9 | COc1cc2nncc(-c3cnn(Cc4ccc(OC(F)(F)F)cc4)c3)c2cc1OC [Cpd 32, 6,7-dimethoxy-4-{1-[4-(trifluoromethoxy)benzyl]-1H-pyrazol-4-yl}cinnoline] | 459
10 | COc1cc2nncc(-c3ccnc(N4CCOCC4)c3F)c2cc1OC [Cpd 42] | 62
11 | COc1cc2nncc(N3CCc4c(OCC5CC5)cccc4C3=O)c2cc1OC [Cpd 46] | 247
12 | COc1cc2nncc(-c3ccnc(N4CCN(C)C(=O)C4)c3)c2cc1OC [Cpd 54] | 55.8
13 | COc1cc2nncc(-c3ccc(NCCN)nc3)c2cc1OC [Cpd 63] | 614
14 | COc1cc2nncc(-c3ccc(NCC4CCN4C(=O)OC(C)(C)C)nc3)c2cc1OC (stereo not drawn) [Cpd 65] | 66.6
15 | COc1cc2nncc(-c3ccc(OCc4ccc5ccccc5n4)cc3)c2cc1OC [Cpd 68] | 106
16 | COc1cc2nncc(-c3ccc(N4CCn5c(nnc5C(F)(F)F)C4)nc3)c2cc1OC [Cpd 72] | 68.6
17 | CNC1CCN(c2ccc(-c3cnnc4cc(OC)c(OC)cc34)cn2)CC1 [Cpd 79] | 362
18 | COc1cc2nncc(-c3ccc(Nc4ccccc4)nc3)c2cc1OC [Cpd 81] | 89.1
19 | COc1cc2nncc(-c3ccc(Oc4ccccc4)nc3)c2cc1OC [Cpd 87] | 152
20 | COc1cc2nncc(-c3ccc(Nc4ccc(N(C)C)cc4)nc3)c2cc1OC [Cpd 88] | 179
21 | COc1cc2nncc(-c3ccc(Nc4cccc(C#N)c4)nc3)c2cc1OC [Cpd 95] | 87.9
22 | COc1cc2nncc(-c3ccc(C(C)=O)c(F)c3)c2cc1OC [Cpd 100] | 254
23 | COc1cc2nncc(-c3ccc(CN4CC(C(=O)O)C4)cc3)c2cc1OC [Cpd 101, 1-(4-(6,7-dimethoxycinnolin-4-yl)benzyl)azetidine-3-carboxylic acid] | 231
24 | COc1cc2nncc(-c3cnc(-c4cnc(NC(C)C)c(F)c4)c(F)c3)c2cc1OC [Cpd 115] | 676
25 | COc1cc2nncc(-c3ccc(Nc4nnc(C5CC5)s4)nc3)c2cc1OC [Cpd 119] | 259
26 | COc1cc2nncc(-c3ccc(NCc4cccc(OC(F)(F)F)c4)nc3)c2cc1OC [Cpd 122] | 186

These reach a lower IC50. Values come first.

Row | IC50 [nM] | Compound
27 | 29.8 | CCS(=O)(=O)c1cccc(-c2cnnc3cc(OC)c(OC)cc23)c1 [Cpd 3, 4-[3-(Ethylsulfonyl)phenyl]-6,7-dimethoxycinnoline]
28 | 19.3 | COc1cc2nncc(N3CCc4[nH]nc(C(=O)NC5CC5)c4C3)c2cc1OC [Cpd 7, N-cyclopropyl-5-(6,7-dimethoxycinnolin-4-yl)-4,5,6,7-tetrahydro-1H-pyrazolo[4,3-c]pyridine-3-carboxamide]
29 | 30.6 | COc1cc2nncc(-c3cccc(C4=NC(C)(C)CO4)c3)c2cc1OC [Cpd 8, 4-[3-(4,4-Dimethyl-4,5-dihydro-1,3-oxazol-2-yl)phenyl]-6,7-dimethoxycinnoline]
30 | 12.1 | CCOC(=O)c1n[nH]c2ccc(-c3cnnc4cc(OC)c(OC)cc34)cc12 [Cpd 12, Ethyl 5-(6,7-dimethoxycinnolin-4-yl)-1H-indazole-3-carboxylate]
31 | 43 | COc1cc2nncc(-c3cccc(NC(C)=O)c3)c2cc1OC [Cpd 14, N-[3-(6,7-dimethoxycinnolin-4-yl)phenyl]acetamide hydroformate]
32 | 22.8 | COc1cc2nncc(-c3cccc(N(C)C)c3)c2cc1OC [Cpd 15, 3-(6,7-Dimethoxycinnolin-4-yl)-N,N-dimethylaniline hydroformate]
33 | 43.6 | COc1cc2nncc(-c3cnn(Cc4ccc(C)cc4)c3)c2cc1OC [Cpd 21, 6,7-Dimethoxy-4-[1-(4-methylbenzyl)-1H-pyrazol-4-yl]cinnoline]
34 | 48.7 | COC(=O)c1ccc(Cn2cc(-c3cnnc4cc(OC)c(OC)cc34)cn2)cc1 [Cpd 24, Methyl 4-{[4-(6,7-dimethoxycinnolin-4-yl)-1H-pyrazol-1-yl]methyl}benzoate]
35 | 11.1 | COc1cc2nncc(-c3ccc(N4CCOCC4)nc3)c2cc1OC [Cpd 33, 6,7-Dimethoxy-4-(6-morpholin-4-ylpyridin-3-yl)cinnoline]
36 | 10.4 | COc1cc2nncc(-c3cnn(Cc4ccc(F)cc4)c3)c2cc1OC [Cpd 35, 4-[1-(4-fluorobenzyl)-1H-pyrazol-4-yl]-6,7-dimethoxycinnoline hydroformate]
37 | 19.9 | COc1cc2nncc(-c3cnc(N4CCN(C)CC4)nc3)c2cc1OC [Cpd 43, 6,7-dimethoxy-4-[2-(4-methylpiperazin-1-yl)pyrimidin-5-yl]cinnoline]
38 | 48.4 | CCOC(=O)c1noc2ccc(-c3cnnc4cc(OC)c(OC)cc34)cc12 [Cpd 52]
39 | 10.5 | COc1cc2nncc(-c3ccc(N4CCC(OC)C4)nc3)c2cc1OC (stereo not drawn) [Cpd 55]
40 | 29.5 | COc1cc2nncc(-c3ccc(N4CCC(F)(F)CC4)nc3)c2cc1OC [Cpd 56]
41 | 8.23 | COc1cc2nncc(-c3ccc(NC(C)C)nc3)c2cc1OC [Cpd 59]
42 | 36.2 | COCCNc1ccc(-c2cnnc3cc(OC)c(OC)cc23)cn1 [Cpd 62]
43 | 33.8 | COc1cc2nncc(-c3ccc(OCC4CC4)nc3)c2cc1OC [Cpd 89, 4-(6-(cyclopropylmethoxy)pyridin-3-yl)-6,7-dimethoxycinnoline]
44 | 17.9 | COc1cc2nncc(-c3ccc(NCCc4ccccn4)nc3)c2cc1OC [Cpd 93]
45 | 21.4 | COc1cc2nncc(-c3ccc(N4CCC(O)(c5ccccc5)CC4)nc3)c2cc1OC [Cpd 108]
46 | 38.6 | COc1cc2nncc(-c3ccc(Nc4ccc(-c5cnco5)cc4)nc3)c2cc1OC [Cpd 118]
47 | 18.5 | COc1cc2nncc(-c3ccc(NC(C)C)nc3C)c2cc1OC [Cpd 123]
48 | 41.5 | COc1cc2nncc(-c3ccc(F)c(NC(C)=O)c3)c2cc1OC [Cpd 146]

— US20070265256A1, “Phosphodiesterase 10 inhibitors” (priority 2006, published 2007)
